Reference: patent publication US8765784B2, “Positive allosteric modulators of MGLUR2” (Merck Sharp & Dohme Corp., priority 2010, dated 2014)

Biological target: T1, human mGluR2 (Homo sapiens, UniProt Q14416)
T1 construct: expressed in transfected cells
Experiment: FLIPR Ca2+ mobilization assay, potentiation of mGluR2
Format: cell-based
Conditions: CHO dhfr- cells expressing recombinant human mGluR2 and Gα16; potentiation after EC20 glutamate (900 nM); read-out: IC50 (Representative FLIPR EC50 Values)
Description: Activity in potentiating the mGluR2 receptor may be determined as follows. The compounds of the present invention are tested in a fluorescence laser imaging plate reader (FLIPR) based assay. This assay is a common functional assay to monitor Ca^2+ mobilization in whole cells expressing recombinant receptor coupled with a promiscuous G-protein. CHO dhfr-cells stably expressing recombinant human mGluR2 and Gα16 loaded with Fluo-4 AM (Invitrogen, Carlsbad Calif.) are treated with dose responses of compounds and the Ca^2+ response is monitored on a FLIPR384 (Molecular Devices, Sunnydale Calif.) for agonist activity. The potentiation response is monitored after a subsequent addition of an EC20 concentration of glutamate (900 nM). The maximum calcium response at each concentration of compound for agonist or potentiation are plotted as dose responses and the curves are fitted with a four parameters logistic equation giving EC50 and Hill coefficient using the iterative non linear curve fitting software program.

T1 sequence (Q14416 19-872): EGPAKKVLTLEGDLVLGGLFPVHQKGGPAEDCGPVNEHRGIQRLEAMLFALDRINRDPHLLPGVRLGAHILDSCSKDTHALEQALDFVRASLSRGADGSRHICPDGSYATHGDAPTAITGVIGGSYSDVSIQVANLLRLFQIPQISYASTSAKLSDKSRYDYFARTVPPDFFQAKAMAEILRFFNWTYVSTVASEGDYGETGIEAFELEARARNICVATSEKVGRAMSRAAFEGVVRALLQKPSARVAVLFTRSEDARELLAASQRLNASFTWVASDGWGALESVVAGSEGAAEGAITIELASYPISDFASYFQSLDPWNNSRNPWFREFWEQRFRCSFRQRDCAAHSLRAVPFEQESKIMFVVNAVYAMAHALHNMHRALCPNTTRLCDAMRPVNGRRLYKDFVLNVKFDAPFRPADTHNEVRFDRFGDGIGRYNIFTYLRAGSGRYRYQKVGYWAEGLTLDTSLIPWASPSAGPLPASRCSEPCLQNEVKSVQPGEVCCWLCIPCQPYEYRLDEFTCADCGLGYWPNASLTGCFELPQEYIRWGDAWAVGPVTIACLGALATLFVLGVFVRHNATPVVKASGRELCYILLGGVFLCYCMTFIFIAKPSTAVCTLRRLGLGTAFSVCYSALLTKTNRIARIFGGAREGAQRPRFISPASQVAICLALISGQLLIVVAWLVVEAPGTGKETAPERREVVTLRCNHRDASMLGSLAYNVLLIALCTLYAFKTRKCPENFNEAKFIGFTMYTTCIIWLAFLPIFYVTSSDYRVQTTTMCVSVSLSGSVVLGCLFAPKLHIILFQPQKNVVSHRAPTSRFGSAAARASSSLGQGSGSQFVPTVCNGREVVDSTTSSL

SMILES	EC50
Cn1c(=O)n(CC(C)(C)C)c2ccc(-c3cc(Oc4ccnc(C#N)c4)ccc3C#N)nc21 [Compound 16-3, 4-{4-cyano-3-[1-(2,2-dimethylpropyl)-3-methyl-2-oxo-2,3-dihydro-1H-imidazo[4,5-b]pyridin-5-yl]phenoxy}pyridine-2-carbonitrile]	8 nM
Cn1c(=O)n(CC(C)(C)C)c2ccc(-c3cc(CN4CCS(=O)(=O)CC4)ccc3C#N)nc21 [Compound 21-11, 2-[1-(2,2-dimethylpropyl)-3-methyl-2-oxo-2,3-dihydro-1H-imidazo[4,5-b]pyridin-5-yl]-4-[(1,1-dioxidothiomorpholin-4-yl)methyl]benzonitrile]	34 nM
Cn1c(=O)n(CC(C)(C)C)c2ccc(-c3cc(CN4CCN(S(C)(=O)=O)CC4)ccc3C#N)nc21 [Compound 21-45, 2-[1-(2,2-dimethylpropyl)-3-methyl-2-oxo-2,3-dihydro-1H-imidazo[4,5-b]pyridin-5-yl]-4-{[4-(methylsulfonyl)piperazin-1-yl]methyl}benzonitrile]	21 nM
CC(=O)N1CCN(Cc2ccc(C#N)c(-c3ccc4c(n3)n(C)c(=O)n4CC(C)(C)C)c2)CC1 [Compound 21-47, 4-[(4-acetylpiperazin-1-yl)methyl]-2-[1-(2,2-dimethylpropyl)-3-methyl-2-oxo-2,3-dihydro-1H-imidazo[4,5-b]pyridin-5-yl]benzonitrile]	74 nM
COC(=O)NC(C)(C)c1ccc(C)c(-c2ccc3c(n2)n(C)c(=O)n3CC(C)(C)C)c1 [Compound 42-3, Methyl (1-{3-[1-(2,2-dimethylpropyl)-3-methyl-2-oxo-2,3-dihydro-1H-imidazo[4,5-b]pyridin-5-yl]-4-methylphenyl}-1-methylethyl)carbamate]	37 nM
CC(=O)N1CCN(Cc2ccc(C)c(-c3ccc4c(n3)n(C)c(=O)n4CC(C)(C)C)c2)CC1 [Compound 51-9, 5-{5-[(4-acetylpiperazin-1-yl)methyl]-2-methylphenyl}-1-(2,2-dimethylpropyl)-3-methyl-1,3-dihydro-2H-imidazo[4,5-b]pyridin-2-one]	226 nM
Cc1ccc(CN2CCN(S(C)(=O)=O)CC2)cc1-c1ccc2c(n1)n(C)c(=O)n2CC(C)(C)C [Compound 51-10, 1-(2,2-dimethylpropyl)-3-methyl-5-(2-methyl-5-{[4-(methylsulfonyl)piperazin-1-yl]methyl}phenyl)-1,3-dihydro-2H-imidazo[4,5-b]pyridin-2-one]	26 nM
Cc1ccc(CN2CCN(S(C)(=O)=O)CC2)cc1-c1ccc2c(n1)n(C)c(=O)n2CC1CC1(F)F (stereo not shown) [Compound 56-4, 1-[(2,2-difluorocyclopropyl)methyl]-3-methyl-5-(2-methyl-5-{[4-(methylsulfonyl)piperazin-1-yl]methyl}phenyl)-1,3-dihydro-2H-imidazo[4,5-b]pyridin-2-one]	35 nM
Cn1c(=O)n(CC(C)(C)C)c2ccc(-c3cccc(C(C)(C)O)c3F)nc21 [Compound 60-1, 1-(2,2-dimethylpropyl)-5-[2-fluoro-3-(1-hydroxy-1-methylethyl)phenyl]-3-methyl-1,3-dihydro-2H-imidazo[4,5-b]pyridin-2-one]	25 nM
Cn1c(=O)n(CC(C)(C)C)c2ccc(-c3cccc(CN4CCc5onc(O)c5C4)c3F)nc21 [Compound 61-4, 1-(2,2-dimethylpropyl)-5-{2-fluoro-3-[(3-hydroxy-6,7-dihydroisoxazolo[4,5-c]pyridin-5(4H)-yl)methyl]phenyl}-3-methyl-1,3-dihydro-2H-imidazo[4,5-b]pyridin-2-one]	11 nM
CC(O)C(=O)N1CCCC(c2cccc(-c3ccc4c(n3)n(C)c(=O)n4CC(C)(C)C)c2)C1 (stereo not shown) [Compound 65-6, 1-(2,2-dimethylpropyl)-5-{3-[1-(2-hydroxypropanoyl)piperidin-3-yl]phenyl}-3-methyl-1,3-dihydro-2H-imidazo[4,5-b]pyridin-2-one]	28 nM
Cn1c(=O)n(CC(C)(C)C)c2ccc(-c3cccc(N4CCN(C(=O)c5ccon5)CC4)c3)nc21 [Compound 66-4, 1-(2,2-dimethylpropyl)-5-{3-[4-(isoxazol-3-ylcarbonyl)piperazin-1-yl]phenyl}-3-methyl-1,3-dihydro-2H-imidazo[4,5-b]pyridin-2-one]	45 nM
Cc1ccc(CC(C)(C)O)cc1-c1ccc2c(n1)n(C)c(=O)n2CC(C)(C)C [Compound 81-3, 1-(2,2-dimethylpropyl)-5-[5-(2-hydroxy-2-methylpropyl)-2-methylphenyl]-3-methyl-1,3-dihydro-2H-imidazo[4,5-b]pyridin-2-one]	43 nM
